From patent US8338599B2, “Compounds having a potentiating effect on the activity of ethionamide and uses thereof” (priority 2006, dated 2012)
Where “and” joins values, the source holds several entries; their conditions need not be identical. Identical values can stand only once.

Assays:
[1] = molecular target: T1, EthR protein (Mycobacterium tuberculosis, UniProt P9WMC1); experiment: Inhibition of interaction of EthR with its target DNA sequence (BIAcore); format: binding, M. tuberculosis H37Rv
T1 sequence (P9WMC1 whole entry, looked up): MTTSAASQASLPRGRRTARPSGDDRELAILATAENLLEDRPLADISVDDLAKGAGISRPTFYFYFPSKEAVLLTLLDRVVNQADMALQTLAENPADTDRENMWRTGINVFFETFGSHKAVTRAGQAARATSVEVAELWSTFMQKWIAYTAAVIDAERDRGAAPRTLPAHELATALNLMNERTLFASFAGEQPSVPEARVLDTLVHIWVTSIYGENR
Protocol: a) Measurement of the Activity of the Compounds on the Inhibition of Interaction of EthR with its Target DNA Sequence
The in vitro measurements of inhibition of binding of the EthR protein to its target DNA sequence were performed on a machine of BIAcore®2000 type (AB, Uppsala, Sweden).
The chips used are CM5 chips sold by the company GE Healthcare. Both the channels of a chip were activated with a solution containing 200 mM of EDC(N-ethyl-N′-(3-[…])carbodiimide) and 50 mM of NHS (N-hydroxysuccinimide). Next, streptavidin (500 ng/μl in a solution containing 10 mM of sodium acetate (pH 3.5) was injected over 12 minutes at a flow rate of 10 μl/minute. The 106-base-pair biotinylated DNA fragment corresponding to the ethA-R intergene region was deposited on one of the two channels of the chip at a rate of 200 ng/ml in order to obtain stable binding of streptavidin corresponding to 50 RU (resonance units). This DNA fragment was obtained by PCR using the chromosomal DNA of M. tuberculosis H37Rv as matrix and O-270: 5′-[…]-3′ (SEQ ID: No. 1) and O-271: 5′-biotin-[…]-3′ (SEQ ID: No. 2). The second channel was functionalized with a 113-base-pair biotinylated DNA fragment (fragment +14 to +127 of the bla gene of E. coli PCR-amplified using the following oligonucleotides: O-343: 5′-[…]-3′ (SEQ ID: No. 3) and O-344: 5′-biotin-[…]-3′ (SEQ ID: No. 4).
Measurement of the binding of the EthR protein to the immobilized DNA was performed at 37° C. in a reference buffer containing 10 mM of Tris-HCl (pH=7.5), 200 mM of NaCl, 0.1 mM of EDTA, 1 mM of DTT and 1% of DMSO at a flow rate of 20 μl/minute. The specific interaction (SI) of EthR with the 106-base-pair double-stranded DNA sequence, expressed in resonance units, corresponds to the difference in signal observed between the two channels.
For each inhibition measurement, the compounds of the invention are dissolved in the reference buffer at a concentration of 3 μM. The compounds of the invention are then incubated in the presence of the protein (540 nM) at 37° C. for 5 minutes, and each solution is then injected onto the two channels of the chip for 3 minutes at a flow rate of 20 μl/minute. The inhibition values are calculated at the end of the injection according to the following equation: […]
in which SIEthR corresponds to the value measured without ligand and SIEthR+ligand corresponds to the value measured in the presence of to ligand.

[2] = molecular target: T1, EthR protein; experiment: In vitro measurement of the IC50 (EthR/DNA binding, BIAcore); design: species or system M. tuberculosis H37Rv
Protocol: b) In Vitro Measurement of the IC50 of the Compounds of the Invention.
The in vitro measurement of this datum was performed according to the same principle as for the measurement of inhibition of the EthR/DNA binding using the BIAcore technique.
The specific interaction between EthR and the specific 106-bp DNA fragment was measured on a range of six concentrations of the compounds of the invention, this range extending from 0.11 μM to 27 μM. The IC50 values are then extrapolated from the sigmoid curves obtained.

[3] = system: M. bovis BCG; format: cell-based, M. bovis BCG 1173P2; conditions: from MIC of ETH alone (6 μM) and MIC of ETH with 25 μM compound
[4] = system: M. tuberculosis H37Rv; experiment: Ethionamide-potentiating effect, RIA detection method on Bactec 460 in 12B medium; format: cell-based; conditions: with 25 μM of compound
[5] = system: Mycobacterium tuberculosis bacilli (strain H37RV); experiment: Agar gel well test of ETH potentiation in Petri dishes; format: cell-based

Structure (SMILES)	inhibition at 3 µM ([1]; compound 3 μM, EthR 540 nM, 37° C.) [%]	inhibition at 1 µM ([1]; footnote c: DNA 20 RU, EthR 200 nM, compound 1 μM) [%]	IC50 [2] [nM]	Potentiation % [3] [%]	ETH concentration giving the same growth-inhibiting effect [4]	inhibition of mycobacterial growth around the well ([5]; 20 nmol of compound alone (hole A2), three weeks 37° C.)	inhibition of mycobacterial growth around the well ([5]; 2 μg or 4 μg of ETH + 20 nmol of compound (holes C1 and C2))	factor of reduction of the effective dose of ETH ([5]; combination with ETH, test behind the figure not stated)
[N-]=[N+]=NCC(=O)N1CCC(c2nc(-c3cccs3)no2)CC1 [Compound I-1, 2-azido-1-[4-(3-thiophen-2-yl[1,2,4]oxadiazol-5-yl)piperid-1-yl]ethanone]	33	45	1540	2500	0.1 μg/ml and 0.6 μM			
CC(C)(C)OC(=O)N1CCC(c2nc(-c3cccs3)no2)CC1 [Compound I-3, t-butyl ester of 4-(3-thiophen-2-yl-1,2,4-oxadiazol-5-yl)piperidine-1-carboxylic acid]						does not show any bacterial toxicity	strongly inhibit the mycobacterial growth	about 10 fold
